Measurements as given in patent publication US20230293517A1, “ANTAGONIST COMPOUNDS” (AdoRx Therapeutics Limited, priority 2020, published 2023).
Where two headings read alike, the source gives them in different places.

What was measured:
[1] = test system: immature monocyte-derived dendritic cells (MoDC); test: MoDC pCREB assay; assay type: cell-based, human; conditions: pCREB in immature MoDC, 1 μM NECA, rolipram
Procedure: Monocytes are isolated from human whole blood using CD14 microbeads (Miltenyi Biotec 130-050-201) and differentiated to immature monocyte-derived dendritic cells (MoDC) by culture for 5 days in Mo-DC Differentiation Medium (Miltenyi Biotec 130-094-812). MoDCs are seeded into fresh medium into U bottomed 96 well culture plates and pre-incubated at 37° C. with serial dilutions of A2A/B antagonists for 15 min. At the same time the cells are co-incubated with the phosphodiesterase inhibitor rolipram (final concentration of 20 µM) to amplify the subsequent pCREB response. Adenosine receptor agonist NECA is then added at 1 μM final concentration, leading to an increase in CREB phosphorylation. Following a 45 min incubation at 37° C., the cells are fixed, permeabilized and stained with directly conjugated fluorescent antibodies to phospho-CREB (Alexa Fluor 488), CD209 (PerCP-Cy5.5) and CD86 (APC). Samples are analysed by FACS to measure fluorescence in corresponding channels, and also forward and Side scatter. The population of CD209+/CD86− low cells corresponding to immature dendritic cells is gated for analysis of pCREB levels.
Approximately 5% of the analysed cells are positive for detection of pCREB in the absence of agonist stimulation, representing the background signalling of all pathways upstream of CREB. Following NECA stimulation this is increased to ˜80% pCREB+ve, and this increase is essentially fully reversible by A2B or dual A2A/B antagonists.
IC50 is represented as the point of inflection of a sigmoidal curve

[2] = biological target: human Adenosine A2b receptor (Homo sapiens (Human), UniProt P29275); test: Adenosine receptor TR-FRET binding assay (A2b)
How it was run: (§1)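 Competition binding measured by TR-FRET between terbium-labelled receptors (CHO membranes, human) and fluorescent XAC, CA200645, used at 30 nM for A2b and 100 nM elsewhere. Room temperature, 2 h. Reported as Ki (Cheng–Prusoff).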

[3] = biological target: human Adenosine A2a receptor (Homo sapiens (Human), UniProt P29274); test: Adenosine receptor TR-FRET binding assay (A2a); conditions: inhibition of binding of 100 nM CA200645, CHO cell membranes
How it was run: as §1

[4] = biological target: human Adenosine A3 receptor (Homo sapiens (Human), UniProt P0DMS8); test: Adenosine receptor TR-FRET binding assay (A3); conditions: inhibition of binding of 100 nM CA200645, CHO cell membranes
How it was run: as §1

[5] = test system: CD8+T cells in human whole blood; test: Measurement of pCREB in CD8+T cells in human whole blood; assay type: cell-based; conditions: 3 μM NECA, rolipram
How it was run: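 Heparinised human whole blood pre-incubated 20 min at 37 °C with serially diluted A2a antagonists plus rolipram, then stimulated 60 min with 3 μM NECA (final). After fixation and red-cell lysis, white cells were permeabilized and stained for phospho-CREB and CD8; pCREB in CD8+ T cells measured by flow cytometry.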

[6] = biological target: human Adenosine A1 receptor (Homo sapiens (Human), UniProt P30542); test: Adenosine receptor TR-FRET binding assay (A1); conditions: inhibition of binding of 100 nM CA200645, CHO cell membranes
How it was run: as §1

human PBMCs = test: CD3/CD28 stimulated IL-2 release NECA reversal assay in human PBMCs; assay type: cell-based; conditions: PBMC, 1 uM NECA, 24 hours, IL-2 in culture supernatant
How it was run: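 PBMCs from citrated healthy-donor blood plated at 50,000 cells/well on 1 ug/ml CD3 antibody with 1 ug/ml CD28 antibody, 1 uM NECA and 0.003-10 μM antagonist (final), 24 h at 37° C. Supernatant IL-2 measured by MSD immunoassay; % inhibition set against no-NECA control wells as 100%.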

[7] = TR-FRET, inhibition of binding of 30 nM CA200645, CHO cell membranes

Chain of human Adenosine A2b receptor (P29275 whole entry): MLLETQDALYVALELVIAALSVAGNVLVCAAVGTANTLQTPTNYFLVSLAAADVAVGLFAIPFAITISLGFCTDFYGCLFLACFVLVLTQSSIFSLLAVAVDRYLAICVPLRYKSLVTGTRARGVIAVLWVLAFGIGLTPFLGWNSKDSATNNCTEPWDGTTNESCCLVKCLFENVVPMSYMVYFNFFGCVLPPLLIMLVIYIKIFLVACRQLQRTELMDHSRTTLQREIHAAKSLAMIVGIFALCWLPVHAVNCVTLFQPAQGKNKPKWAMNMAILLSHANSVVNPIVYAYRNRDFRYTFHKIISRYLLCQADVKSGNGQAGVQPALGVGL
Chain of human Adenosine A2a receptor (P29274 whole entry): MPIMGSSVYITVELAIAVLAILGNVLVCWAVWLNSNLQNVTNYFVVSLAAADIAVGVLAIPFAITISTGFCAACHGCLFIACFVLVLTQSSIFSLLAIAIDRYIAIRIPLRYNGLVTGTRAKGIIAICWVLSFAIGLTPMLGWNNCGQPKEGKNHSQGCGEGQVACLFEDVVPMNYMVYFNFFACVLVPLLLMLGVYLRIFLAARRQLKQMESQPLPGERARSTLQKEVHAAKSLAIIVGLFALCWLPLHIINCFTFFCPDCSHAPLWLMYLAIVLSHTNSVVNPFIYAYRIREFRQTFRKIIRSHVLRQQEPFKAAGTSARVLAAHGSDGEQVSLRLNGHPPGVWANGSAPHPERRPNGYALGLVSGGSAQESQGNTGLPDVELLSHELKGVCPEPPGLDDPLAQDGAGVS
Chain of human Adenosine A3 receptor (P0DMS8 whole entry): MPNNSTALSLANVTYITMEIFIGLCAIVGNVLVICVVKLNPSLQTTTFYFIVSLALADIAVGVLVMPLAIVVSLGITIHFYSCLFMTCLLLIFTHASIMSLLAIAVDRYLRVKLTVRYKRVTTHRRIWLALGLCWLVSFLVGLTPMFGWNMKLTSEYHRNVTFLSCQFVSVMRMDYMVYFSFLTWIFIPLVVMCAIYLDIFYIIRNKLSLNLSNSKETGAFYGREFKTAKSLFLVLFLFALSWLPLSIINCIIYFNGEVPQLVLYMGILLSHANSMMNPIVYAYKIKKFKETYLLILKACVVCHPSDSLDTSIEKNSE
Chain of human Adenosine A1 receptor (P30542 whole entry): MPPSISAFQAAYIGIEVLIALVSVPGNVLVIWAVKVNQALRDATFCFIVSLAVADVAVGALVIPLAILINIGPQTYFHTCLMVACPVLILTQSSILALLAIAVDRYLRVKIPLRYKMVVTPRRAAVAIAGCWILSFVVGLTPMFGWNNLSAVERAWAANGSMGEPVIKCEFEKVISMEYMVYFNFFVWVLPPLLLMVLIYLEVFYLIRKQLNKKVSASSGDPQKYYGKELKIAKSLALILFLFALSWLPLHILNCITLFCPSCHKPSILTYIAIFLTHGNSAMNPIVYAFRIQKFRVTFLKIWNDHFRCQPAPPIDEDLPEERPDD

| IC50 ([1]; Homo sapiens, Dendritic cell) | Ki [2] | Ki [3] | Ki [4] | IC50 [5] | Ki [6] | Ki [2, 7] | IC50 [1] | SMILES | IC50 (human PBMCs) |
| --- | --- | --- | --- | --- | --- | --- | --- | --- | --- |
| 72 nM | 7 nM | 0.91 nM | 819 nM | 50 nM |  |  |  | Cc1cc(-c2sc(NC(=O)N3C[C@@H]4OCCN(C)[C@@H]4C3)nc2-c2cccc(C#N)c2)cc(C)n1 (racemic) [Example 6.98, rac-(4aR,7aS)-N-[4-(3-Cyanophenyl)-5-(2,6-dimethyl-4-pyridyl)thiazol-2-yl]-4-methyl-2,3,4a,5,7,7a-hexahydropyrrolo[3,4-b][1,4]oxazine-6-carboxamide] |  |
| 31 nM |  | 0.44 nM | 1810 nM | 20 nM | 27 nM | 5 nM |  | Cc1cc(-c2sc(NC(=O)N3CC4(COC4)C3)nc2-c2cccc(C#N)c2)cc(C(C)O)n1 (racemic) [Example 12.3, N-[4-(3-Cyanophenyl)-5-[2-(1-hydroxyethyl)-6-methyl-4-pyridyl]thiazol-2-yl]-2-oxa-6-azaspiro[3.3]heptane-6-carboxamide] |  |
|  |  | 0.18 nM | 1090 nM | 10 nM | 23 nM | 2.6 nM | 16 nM | Cc1cc(-c2sc(NC(=O)N3CC4(COC4)C3)nc2-c2cccc(C#N)c2)cc([C@@H](C)O)n1 (single isomer, unassigned) [Example 12.3a, N-[4-(3-Cyanophenyl)-5-[2-[(1R)-1-hydroxyethyl]-6-methyl-4-pyridyl]thiazol-2-yl]-2-oxa-6-azaspiro[3.3]heptane-6-carboxamide or N-[4-(3-cyanophenyl)-5-[2-[(1S)-1-hydroxyethyl]-6-methyl-4-pyridyl]thiazol-2-yl]-2-oxa-6-azaspiro[3.3]heptane-6-carboxamide] |  |
| 28 nM |  | 1.28 nM | 166 nM |  | 24 nM | 0.9 nM |  | Cc1cc(-c2sc(NC(=O)N3CCC(S(N)(=O)=O)C3)nc2-c2cccc(C#N)c2)cc(C)n1 (stereo not drawn) [Example 6.2, N-[4-(3-Cyanophenyl)-5-(2,6-dimethyl-4-pyridyl)thiazol-2-yl]-3-sulfamoyl-pyrrolidine-1-carboxamide] |  |
| 7 nM |  |  |  | 70 nM |  |  |  | Cc1cc(-c2sc(NC(=O)N3CCC4(CC3)CNC(=O)O4)nc2-c2cccc(C#N)c2)cc(C)n1 [Example 6.56, N-[4-(3-Cyanophenyl)-5-(2,6-dimethyl-4-pyridyl)thiazol-2-yl]-2-oxo-1-oxa-3,8-diazaspiro[4.5]decane-8-carboxamide] | 3.5 nM |
| 13 nM |  | 0.23 nM | 250 nM | 50 nM | 17 nM | 1.1 nM |  | Cc1cc(-c2sc(NC(=O)N3CC4(COC4)C3)nc2-c2cccc(C#N)c2)cc(C(F)F)n1 [Example 6.97, N-[4-(3-Cyanophenyl)-5-[2-(difluoromethyl)-6-methyl-4-pyridyl]thiazol-2-yl]-2-oxa-6-azaspiro[3.3]heptane-6-carboxamide] |  |
| 10 nM |  | 0.16 nM | 549 nM |  | 25 nM | 0.6 nM |  | Cc1cc(-c2sc(NC(=O)N3CC4(COC4)C3)nc2-c2cccc(C#N)c2)cc(Cl)n1 [Example 6.100, N-[5-(2-Chloro-6-methyl-4-pyridyl)-4-(3-cyanophenyl)thiazol-2-yl]-2-oxa-6-azaspiro[3.3]heptane-6-carboxamide] |  |
| 12 nM |  | 0.2 nM | 564 nM |  | 31 nM | 1 nM |  | [2H]C([2H])([2H])c1cc(-c2sc(NC(=O)N3CC4(COC4)C3)nc2-c2cccc(C#N)c2)cc(C([2H])([2H])[2H])n1 [Example 6.104, N-[5-[2,6-Bis(trideuteriomethyl)-4-pyridyl]-4-(3-cyanophenyl)thiazol-2-yl]-2-oxa-6-azaspiro[3.3]heptane-6-carboxamide] |  |
| 4 nM |  | 1.27 nM | 368 nM |  | 71 nM | 1.3 nM |  | Cc1cc(-c2sc(NC(=O)N3CC4(COC4)C3)nc2-c2cccc(C#N)c2)c(F)c(C)n1 [Example 6.105, N-[4-(3-Cyanophenyl)-5-(3-fluoro-2,6-dimethyl-4-pyridyl)thiazol-2-yl]-2-oxa-6-azaspiro[3.3]heptane-6-carboxamide] |  |
| 62 nM |  | 0.59 nM | 145 nM |  | 34 nM | 0.9 nM |  | Cc1cc(-c2sc(NC(=O)N3CCC4(CNCCO4)C3)nc2-c2cccc(C#N)c2)cc(C(F)F)n1 (stereo not drawn) [Example 6.108, N-[4-(3-Cyanophenyl)-5-[2-(difluoromethyl)-6-methyl-4-pyridyl]thiazol-2-yl]-6-oxa-2,9-diazaspiro[4.5]decane-2-carboxamide] |  |
| 73 nM |  | 0.16 nM | 930 nM |  | 6 nM | 3.1 nM |  | Cc1cc(-c2sc(NC(=O)N3CCC(C)(C#N)CC3)nc2-c2cccc(C#N)c2)cc(C(C)(C)O)n1 [Example 12, 4-Cyano-N-[4-(3-cyanophenyl)-5-[2-(1-hydroxy-1-methyl-ethyl)-6-methyl-4-pyridyl]thiazol-2-yl]-4-methyl-piperidine-1-carboxamide] |  |
| 73 nM |  | 0.84 nM | 426 nM | 70 nM | 41 nM | 4.6 nM |  | Cc1cc(-c2sc(NC(=O)N3CCC4(CNCCO4)C3)nc2-c2cccc(C#N)c2)cc(C)n1 (stereo not drawn) [Example 13.12, N-[4-(3-Cyanophenyl)-5-(2,6-dimethyl-4-pyridyl)thiazol-2-yl]-6-oxa-2,9-diazaspiro[4.5]decane-2-carboxamide] |  |
| 36 nM |  | 0.13 nM | 1710 nM |  | 12 nM | 3.3 nM |  | Cc1cc(-c2sc(NC(=O)N3CC4(COC4)C3)nc2-c2cccc(C#N)c2)cc(C2COC2)n1 [Example 16.4] |  |
| 18 nM |  | 0.1 nM | 350 nM |  | 9 nM | 0.8 nM |  | CCc1cc(-c2sc(NC(=O)N3CC4(COC4)C3)nc2-c2cccc(C#N)c2)cc(C)n1 [Example 16.9] |  |
| 19 nM |  | 0.21 nM | 1560 nM | 20 nM | 29 nM | 3.9 nM |  | COCc1cc(-c2sc(NC(=O)N3CC4(COC4)C3)nc2-c2cccc(C#N)c2)cc(C)n1 [Example 21, N-[4-(3-Cyanophenyl)-5-[2-(methoxymethyl)-6-methyl-4-pyridyl]thiazol-2-yl]-2-oxa-6-azaspiro[3.3]heptane-6-carboxamide] |  |
| 182 nM |  | 0.16 nM | 1840 nM | 20 nM | 9 nM | 5.7 nM |  | CC(C)(O)c1cc(-c2sc(NC(=O)N3CC4(COC4)C3)nc2-c2cccc(C#N)c2)cc(Cl)n1 [Example 23, N-[5-[2-Chloro-6-(1-hydroxy-1-methyl-ethyl)-4-pyridyl]-4-(3-cyanophenyl)thiazol-2-yl]-2-oxa-6-azaspiro[3.3]heptane-6-carboxamide] |  |
| 17 nM |  | 0.24 nM | 456 nM | 50 nM | 38 nM | 1.2 nM |  | N#Cc1cccc(-c2nc(NC(=O)N3CC4(COC4)C3)sc2-c2cc(CO)nc(C(F)(F)F)c2)c1 [Example 26, N-[4-(3-Cyanophenyl)-5-[2-(hydroxymethyl)-6-(trifluoromethyl)-4-pyridyl]thiazol-2-yl]-2-oxa-6-azaspiro[3.3]heptane-6-carboxamide] |  |
| 10 nM |  | 0.54 nM | 313 nM | 80 nM | 37 nM | 1.2 nM |  | Cc1cc(-c2sc(NC(=O)N3CC[C@@](C)(C#N)C3)nc2-c2cccc(C#N)c2)cc(C)n1 [Example 27a, (3R)-3-Cyano-N-[4-(3-cyanophenyl)-5-(2,6-dimethyl-4-pyridyl)thiazol-2-yl]-3-methyl-pyrrolidine-1-carboxamide] |  |
